In patent US20220144847A1, “HETEROCYCLIC COMPOUND, PHARMACEUTICAL COMPOSITION COMPRISING SAME, PREPARATION METHOD THEREFOR, AND USE THEREOF” (Sichuan Kelun-Biotech Biopharmaceutical Co., Ltd., priority 2019, published 2022) one finds inhibition and IC50 data, which are given here for 19 molecules.

Assay [1] concerns the target VEGFR2 (Homo sapiens, UniProt P35968). As to the kind of experiment: VEGFR2 inhibition experiment (HTRF KinEASE-TK kit). The class given is biochemical. The conditions noted are these: for inhibition at 0.3 µM: 300 nM; for inhibition at 0.3 µM / inhibition at 0.1 µM / inhibition at 0.03 µM: read-out: Inhibition rate on VEGFR2; for inhibition at 0.03 µM: 30 nM. On the procedure:
Experimental method: According to the instructions of the HTRF KinEASE-TK kit (Cisbio), the compounds of the present disclosure were tested for their inhibitory effects on the VEGFR2 enzyme activity. After pre-incubation of the VEGFR2 enzyme and different concentrations of test compounds at room temperature for 30 min, a substrate and adenosine triphosphate (ATP) were added to initiate the reaction. After incubation at room temperature for 40 min, TK antibody-cryptate and streptavidin-XL665 were added, and the test was performed after incubation at room temperature for 45 min. With the solvent group (DMSO) as the negative control and the buffer group (without VEGFR2 enzyme) as the blank control, the relative inhibitory activity percentages (i.e., inhibition rates) of different concentrations of the compounds were computed as per the following formula:
(§1) Relative inhibitory activity percentage=1−(compound group of different concentrations−blank control)/(negative control−blank control)*100%
(§2) The relative inhibitory activity percentages of different concentrations of the compounds were plotted with respect to the compound concentrations, and the curve was fitted according to a four-parameter model to compute the IC50 value as per the following formula:
(§3) y=min+(max−min)/(1+(x/IC50)^(−Hillslope))
(§4) where y is the relative inhibitory activity percentage, max is the maximum value of the fitted curve, min is the minimum value of the fitted curve, x is the logarithmic concentration of the compound, and Hillslope is the slope of the curve.

Assay [2] concerns the target RET-V804M (Homo sapiens, UniProt P07949, V804M). As to the kind of experiment: RET inhibition experiment (HTRF KinEASE-TK kit), mutant RET-V804M. The class given is biochemical. The conditions noted are these: for IC50: read-out: The IC50 (nM) for inhibiting V804M. On the procedure: Experimental method: According to the instructions of the HTRF KinEASE-TK kit (Cisbio), the compounds of the present disclosure were tested for their inhibitory effects on the activity of wild-type RET enzyme, mutant RET enzyme (RET-V804M, RET-V804L, and RET-M918T) and fusion-type RET enzyme (RET-CCDCl6). After pre-incubation of different RET enzymes and different concentrations of the test compounds at room temperature for 30 min, a substrate and adenosine triphosphate (ATP) were added to initiate the reaction. After incubation at room temperature for 40 min, TK antibody-cryptate and streptavidin-XL665 were added, and the test was performed after incubation at room temperature for 45 min. With the solvent group (DMSO) as the negative control and the buffer group (without RET enzyme) as the blank control, the relative inhibitory activity percentages (i.e., inhibition rates) of different concentrations of the compounds were computed as per the following formula:
as §1, §2, §3, §4
On the technique in general: In TR-FRET formats the signal depends on donor and acceptor labels being close together.

[3] abbreviates: 10 nM (Table 2), read-out: Inhibition rate on RET-V804M.

Read-outs that look alike come from different tables or passages of the source.

The term inhibition denotes the change of the read-out against control, counted positive when it falls. Broadly, the IC50 is the concentration needed to halve the response being measured.

Sequence of RET-V804M (P07949 29-1114 V804M): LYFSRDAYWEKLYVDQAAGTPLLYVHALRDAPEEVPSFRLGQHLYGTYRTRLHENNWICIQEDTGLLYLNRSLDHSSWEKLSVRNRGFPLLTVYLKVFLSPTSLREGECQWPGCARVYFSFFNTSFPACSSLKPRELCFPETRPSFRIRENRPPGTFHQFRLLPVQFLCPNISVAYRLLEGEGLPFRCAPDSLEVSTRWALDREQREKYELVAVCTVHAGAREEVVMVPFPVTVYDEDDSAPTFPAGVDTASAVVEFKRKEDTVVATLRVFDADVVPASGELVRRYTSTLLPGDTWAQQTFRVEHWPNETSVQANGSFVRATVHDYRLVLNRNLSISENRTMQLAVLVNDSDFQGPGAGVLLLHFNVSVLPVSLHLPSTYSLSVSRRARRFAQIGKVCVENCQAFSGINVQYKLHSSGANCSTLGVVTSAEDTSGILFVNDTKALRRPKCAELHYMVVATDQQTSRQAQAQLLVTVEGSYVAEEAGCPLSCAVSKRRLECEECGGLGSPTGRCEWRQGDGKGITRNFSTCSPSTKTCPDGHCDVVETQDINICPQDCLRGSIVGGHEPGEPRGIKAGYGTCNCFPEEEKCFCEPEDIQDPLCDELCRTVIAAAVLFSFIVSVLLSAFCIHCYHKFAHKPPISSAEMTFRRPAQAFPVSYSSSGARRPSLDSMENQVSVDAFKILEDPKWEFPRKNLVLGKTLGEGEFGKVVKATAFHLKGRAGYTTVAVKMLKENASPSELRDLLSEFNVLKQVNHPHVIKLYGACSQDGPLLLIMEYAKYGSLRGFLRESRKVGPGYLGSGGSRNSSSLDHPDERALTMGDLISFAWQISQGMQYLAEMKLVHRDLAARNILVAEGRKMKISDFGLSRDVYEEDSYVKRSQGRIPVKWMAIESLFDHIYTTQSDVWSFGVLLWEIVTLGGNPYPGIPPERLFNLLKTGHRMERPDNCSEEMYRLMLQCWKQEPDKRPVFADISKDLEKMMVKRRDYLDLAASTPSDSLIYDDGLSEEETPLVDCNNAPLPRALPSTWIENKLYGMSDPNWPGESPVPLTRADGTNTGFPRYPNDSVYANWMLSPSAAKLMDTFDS
Sequence of VEGFR2 (P35968 20-1356, species assumed): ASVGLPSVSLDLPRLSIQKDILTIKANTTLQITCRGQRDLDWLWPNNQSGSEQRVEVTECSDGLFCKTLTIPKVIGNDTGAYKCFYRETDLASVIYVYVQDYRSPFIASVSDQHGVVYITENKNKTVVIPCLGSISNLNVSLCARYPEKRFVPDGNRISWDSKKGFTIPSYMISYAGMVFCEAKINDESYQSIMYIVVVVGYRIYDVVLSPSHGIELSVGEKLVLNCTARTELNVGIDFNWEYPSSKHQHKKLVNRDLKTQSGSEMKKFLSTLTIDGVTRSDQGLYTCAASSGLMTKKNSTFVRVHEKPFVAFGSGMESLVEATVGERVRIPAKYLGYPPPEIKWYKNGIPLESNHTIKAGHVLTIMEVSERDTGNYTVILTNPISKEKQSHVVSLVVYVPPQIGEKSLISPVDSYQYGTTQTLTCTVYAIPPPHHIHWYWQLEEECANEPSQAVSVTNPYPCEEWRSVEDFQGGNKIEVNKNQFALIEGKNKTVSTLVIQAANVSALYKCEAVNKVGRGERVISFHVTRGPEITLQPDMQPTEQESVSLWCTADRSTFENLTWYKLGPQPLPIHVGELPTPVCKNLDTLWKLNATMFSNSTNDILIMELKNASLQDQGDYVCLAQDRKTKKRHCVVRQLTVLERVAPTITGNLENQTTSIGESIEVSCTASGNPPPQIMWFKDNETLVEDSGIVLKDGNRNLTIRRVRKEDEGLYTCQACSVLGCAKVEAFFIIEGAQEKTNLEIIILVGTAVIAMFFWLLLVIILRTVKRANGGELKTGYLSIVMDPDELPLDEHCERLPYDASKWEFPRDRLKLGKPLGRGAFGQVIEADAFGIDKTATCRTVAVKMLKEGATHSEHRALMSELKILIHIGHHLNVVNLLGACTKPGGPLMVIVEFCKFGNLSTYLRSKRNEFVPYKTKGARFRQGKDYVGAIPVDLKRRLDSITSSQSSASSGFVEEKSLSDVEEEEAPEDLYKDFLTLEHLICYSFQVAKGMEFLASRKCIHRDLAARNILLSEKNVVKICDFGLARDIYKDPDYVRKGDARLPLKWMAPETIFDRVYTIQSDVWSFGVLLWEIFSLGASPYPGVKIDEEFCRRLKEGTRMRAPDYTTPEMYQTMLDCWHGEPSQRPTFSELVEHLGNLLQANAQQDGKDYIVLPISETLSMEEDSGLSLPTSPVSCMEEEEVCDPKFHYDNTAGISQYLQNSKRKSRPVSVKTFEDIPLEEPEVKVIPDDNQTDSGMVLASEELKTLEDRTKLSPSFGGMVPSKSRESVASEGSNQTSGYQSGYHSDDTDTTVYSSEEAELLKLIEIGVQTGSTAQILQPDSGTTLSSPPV

Turning to `Cc1cc(Nc2cc(C)[nH]n2)nc(-c2ccc(N3CC4CC(C3)N4C(C)c3ccc(-n4cccn4)nc3)nc2)n1` (single isomer, unassigned) [Compound 125-2], the inhibition at 0.3 µM in assay [1] came to 63%. Moreover, in assay [2] (setting [3]), the inhibition at 0.01 µM worked out at 82%.
Turning to `Cc1cc(Nc2cc(C)[nH]n2)nc(-c2ccc(N3CC4CC(C3)N4Cc3ccc(-n4cc(F)cn4)nc3)nc2)c1` [Compound 6, 6′-(6-((6-(4-fluoro-1H-pyrazol-1-yl)pyridin-3-yl)methyl)-3,6-diazabicyclo[3.1.1]heptan-3-yl)-4-methyl-N-(5-methyl-1H-pyrazol-3-yl)-[2,3′-dipyridyl]-6-amine], the inhibition at 0.1 µM in assay [1] (100 nM) is -11%. Further, the inhibition at 0.01 µM in assay [2] (setting [3]) was found to be 83%.
For the molecule `COc1ccc(-c2ccc(CN3C4CC3CN(c3ccc(-c5nc(C)cc(Nc6cc(C)[nH]n6)n5)cn3)C4)cn2)cn1` [Compound 7, 2-(6-(6-((6′-methoxy-[2,3′-dipyridyl]-5-yl)methyl)-3,6-diazabicyclo[3.1.1]heptan-3-yl)pyridin-3-yl)-6-methyl-N-(5-methyl-1H-pyrazol-3-yl)pyrimidin-4-amine], in assay [1] (100 nM), the inhibition at 0.1 µM amounted to 16%. In addition, the inhibition at 0.01 µM in assay [2] (setting [3]) worked out at 46%.
Regarding `Cc1cc(Nc2cc(C)[nH]n2)nc(-c2ccc(N3CC4CC(C3)N4Cc3ccc(-c4cc(F)cnc4C)nc3)nc2)n1` [Compound 8, 2-(6-(6-((5′-fluoro-2′-methyl-[2,3′-dipyridyl]-5-yl)methyl)-3,6-diazabicyclo[3.1.1]heptan-3-yl)pyridin-3-yl)-6-methyl-N-(5-methyl-1H-pyrazol-3-yl)pyrimidin-4-amine], the inhibition at 0.3 µM in assay [1] stood at 5%. The inhibition at 0.01 µM in assay [2] (setting [3]) was determined as 46%.
With `Cc1cc(Nc2cc(C)[nH]n2)nc(-c2ccc(N3CC4CC(C3)N4Cc3ccc(-n4nccc4C)nc3)nc2)n1` [Compound 9, 6-methyl-2-(6-(6-((6-(5-methyl-1H-pyrazol-1-yl)pyridin-3-yl)methyl)-3,6-diazabicyclo[3.1.1]heptan-3-yl)pyridin-3-yl)-N-(5-methyl-1H-pyrazol-3-yl)pyrimidin-4-amine], the inhibition at 0.3 µM in assay [1] came out at 69%. For the same molecule, the IC50 in assay [2] was determined as 5.43 ± 0.91 nM.
The matching figures for `Cc1cc(Nc2cc(C3CC3)[nH]n2)nc(-c2ccc(N3CC4CC(C3)N4Cc3ccc(-n4cc(F)cn4)nc3)nc2)n1` [Compound 10, N-(5-cyclopropyl-1H-pyrazol-3-yl)-2-(6-(6-((6-(4-fluoro-1H-pyrazol-1-yl)pyridin-3-yl)methyl)-3,6-diazabicyclo[3.1.1]heptan-3-yl)pyridin-3-yl)-6-methylpyrimidin-4-amine]: 69% and 3.97 ± 0.3 nM.
Turning to `Cc1cc(Nc2cc(C)[nH]n2)nc(-c2ccc(N3CC4CC(C3)N4Cc3ccc(-n4nc(C)cc4C)nc3)nc2)n1` [Compound 11, 2-(6-(6-((6-(3,5-dimethyl-1H-pyrazol-1-yl)pyridin-3-yl)methyl)-3,6-diazabicyclo[3.1.1]heptan-3-yl)pyridin-3-yl)-6-methyl-N-(5-methyl-1H-pyrazol-3-yl)pyrimidin-4-amine], the IC50 in assay [1] (read-out: IC50 for inhibiting VEGFR2) stood at 158 ± 25.1 nM; in assay [2] it was 7.22 ± 0.58 nM.
In the case of `Cc1cc(Nc2cc(C)[nH]n2)nc(-c2ccc(N3CC4CC(C3)N4Cc3ccc(-n4nccc4C(C)C)nc3)nc2)n1` [Compound 12, 2-(6-(6-((6-(5-isopropyl-1H-pyrazol-1-yl)pyridin-3-yl)methyl)-3,6-diazabicyclo[3.1.1]heptan-3-yl)pyridin-3-yl)-6-methyl-N-(5-methyl-1H-pyrazol-3-yl)pyrimidin-4-amine], in assay [1], the inhibition at 0.3 µM is 62%. For the same molecule, the IC50 in assay [2] stood at 6.94 ± 0.78 nM.
With `Cc1cc(Nc2cc(C)[nH]n2)nc(-c2ccc(N3CC4CC(C3)N4Cc3cnc(C)s3)nc2)n1` [Compound 15, 6-methyl-N-(5-methyl-1H-pyrazol-3-yl)-2-(6-(6-((2-methylthiazol-5-yl)methyl)-3,6-diazabicyclo[3.1.1]heptan-3-yl)pyridin-3-yl)pyrimidin-4-amine], the inhibition at 0.1 µM in assay [1] (100 nM) was found to be 29%; in assay [2] (100 nM (Table 2), read-out: Inhibition rate on RET-V804M), 91%.
Turning to `COc1ccc(CN2CCN(c3ccc(-c4nc(C)cc(Nc5cc(C)[nH]n5)n4)cn3)CC2)cc1` [Compound 23, 2-(6-(4-(4-methoxybenzyl)piperazin-1-yl)pyridin-3-yl)-6-methyl-N-(5-methyl-1H-pyrazol-3-yl)pyrimidin-4-amine], the inhibition at 0.1 µM in assay [1] was -10%. Besides, the inhibition at 0.01 µM in assay [2] (read-out: Inhibition rate on RET-V804M) was found to be 47%.
For `Cc1cc(Nc2cc(C)[nH]n2)nc(-c2ccc(N3CC4CC(C3)N4Cc3ccc(-n4cc5c(n4)CCC5)nc3)nc2)n1` [Compound 25], the inhibition at 0.3 µM in assay [1] turned out to be 53%. Further, the IC50 in assay [2] was 6.29 ± 0.9 nM.
As for `Cc1cc(Nc2cc(C)[nH]n2)nc(-c2ccc(N3CC4CC(C3)N4C(=O)c3ccc(-n4cc(F)cn4)nc3)nc2)n1` [Compound 26, (6-(4-fluoro-1H-pyrazol-1-yl)pyridin-3-yl)(3-(5-(4-methyl-6-((5-methyl-1H-pyrazol-3-yl)-amino)pyrimidin-2-yl)pyridin-2-yl)-3,6-diazabicyclo[3.1.1]heptan-6-yl)methanone], in assay [1], the inhibition at 0.3 µM is 64%. In addition, the inhibition at 0.01 µM in assay [2] (setting [3]) was determined as 83%.
On to `Cc1cc(Nc2cc(C)[nH]n2)nc(-c2ccc(N3CC4CC(C3)N4Cc3ccc(-n4nccc4OC4CCC4)nc3)nc2)n1` [Compound 27, 2-(6-(6-((6-(5-cyclobutoxy-1H-pyrazol-1-yl)pyridin-3-yl)methyl)-3,6-diazabicyclo[3.1.1]heptan-3-yl)pyridin-3-yl)-6-methyl-N-(5-methyl-1H-pyrazol-3-yl)pyrimidin-4-amine], for which the inhibition at 0.03 µM in assay [1] is 23%. For the same molecule, the inhibition at 0.01 µM in assay [2] (setting [3]) turned out to be 87%.
As to `Cc1cc(Nc2cc(C)[nH]n2)nc(-c2ccc(N3CC4CC(C3)N4Cc3ccc(-n4cc(Cl)c(C)n4)nc3)nc2)n1` [Compound 28, 2-(6-(6-((6-(4-chloro-3-methyl-1H-pyrazol-1-yl)pyridin-3-yl)methyl)-3,6-diazabicyclo[3.1.1]heptan-3-yl)pyridin-3-yl)-6-methyl-N-(5-methyl-1H-pyrazol-3-yl)pyrimidin-4-amine], the inhibition at 0.3 µM in assay [1] was found to be 23%. Also, in assay [2], the concentration for half-maximal inhibition (IC50) turned out to be 10.4 ± 1.38 nM.
As to `Cc1cc(Nc2cc(C)[nH]n2)nc(-c2ccc(N3CCC(Oc4cncc(F)c4)CC3)nc2)n1` [Compound 29, 2-(6-(4-((5-fluoropyridin-3-yl)oxy)piperidin-1-yl)pyridin-3-yl)-6-methyl-N-(5-methyl-1H-pyrazol-3-yl)pyrimidin-4-amine], the inhibition at 0.3 µM in assay [1] amounted to 47%. Also, in assay [2] (setting [3]), the inhibition at 0.01 µM worked out at 52%.
With `Cc1cc(Nc2cc(C)[nH]n2)nc(-c2ccc(N3CC4CC(C3)N4Cc3ccc(-n4nccc4OC4CC4)nc3)nc2)n1` [Compound 30, 2-(6-(6-((6-(5-cyclopropoxy-1H-pyrazol-1-yl)pyridin-3-yl)methyl)-3,6-diazabicyclo[3.1.1]heptan-3-yl)pyridin-3-yl)-6-methyl-N-(5-methyl-1H-pyrazol-3-yl)pyrimidin-4-amine], in assay [1], the inhibition at 0.03 µM stood at 51%. Further, the inhibition at 0.01 µM in assay [2] (setting [3]) turned out to be 88%.
For the molecule `Cc1cc(Nc2cc(C)[nH]n2)nc(-c2ccc(N3CC4CC(C3)N4Cc3ccc(-n4ccc(CF)n4)nc3)nc2)n1` [Compound 31, 2-(6-(6-((6-(3-(fluoromethyl)-1H-pyrazol-1-yl)pyridin-3-yl)methyl)-3,6-diazabicyclo[3.1.1]heptan-3-yl)pyridin-3-yl)-6-methyl-N-(5-methyl-1H-pyrazol-3-yl)pyrimidin-4-amine], in assay [1], the inhibition at 0.03 µM turned out to be 17%. Besides, in assay [2] (setting [3]), the inhibition at 0.01 µM amounted to 81%.
As to `CCOc1ccc(CN2C3CC2CN(c2ccc(-c4nc(C)cc(Nc5cc(C)[nH]n5)n4)cn2)C3)cc1` [Compound 41, 2-(6-(6-(4-ethoxybenzyl)-3,6-diazabicyclo[3.1.1]heptan-3-yl)pyridin-3-yl)-6-methyl-N-(5-methyl-1H-pyrazol-3-yl)pyrimidin-4-amine], the inhibition at 0.1 µM in assay [1] (100 nM) turned out to be 22%. For the same molecule, the inhibition at 0.01 µM in assay [2] (setting [3]) was 64%.
Regarding `CCc1ccnn1-c1ccc(CN2C3CC2CN(c2ccc(-c4nc(C)cc(Nc5cc(C)[nH]n5)n4)cn2)C3)cn1` [Compound 46, 2-(6-(6-((6-(5-ethyl-1H-pyrazol-1-yl)pyridin-3-yl)methyl)-3,6-diazabicyclo[3.1.1]heptan-3-yl)pyridin-3-yl)-6-methyl-N-(5-methyl-1H-pyrazol-3-yl)pyrimidin-4-amine], in assay [1], the inhibition at 0.3 µM was determined as 79%. Also, the inhibition at 0.01 µM in assay [2] (setting [3]) was found to be 92%.
